# From PMC4317055 (Journal of Medicinal Chemistry, 2014)
# How the values were obtained:
# human factor XIa [1] = target: T1, human factor XIa (Homo sapiens, UniProt P03951); test: Dose-response inhibition of wild-type factor XIa, S-2366 hydrolysis assay; conditions: for HS (Hill slope) / Y0 (minimum value of the residual activity): logistic fit eq 1; for Y0 (minimum value of the residual activity): residual activity Y in %; for improvement in potency over the best sulfated QAO designed earlier: comparison with earlier studies
# T1 sequence (P03951 19-387 limits assumed): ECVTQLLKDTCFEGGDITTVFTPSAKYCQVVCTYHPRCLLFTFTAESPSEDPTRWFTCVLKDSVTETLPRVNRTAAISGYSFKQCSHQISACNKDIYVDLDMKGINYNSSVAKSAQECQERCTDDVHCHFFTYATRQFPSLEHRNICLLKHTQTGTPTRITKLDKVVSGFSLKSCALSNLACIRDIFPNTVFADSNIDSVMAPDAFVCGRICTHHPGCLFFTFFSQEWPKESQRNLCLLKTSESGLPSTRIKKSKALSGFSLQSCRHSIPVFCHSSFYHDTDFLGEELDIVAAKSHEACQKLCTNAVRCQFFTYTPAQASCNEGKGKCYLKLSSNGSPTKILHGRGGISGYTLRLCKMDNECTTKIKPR
# T1 sequence (P03951 388-625 limits assumed): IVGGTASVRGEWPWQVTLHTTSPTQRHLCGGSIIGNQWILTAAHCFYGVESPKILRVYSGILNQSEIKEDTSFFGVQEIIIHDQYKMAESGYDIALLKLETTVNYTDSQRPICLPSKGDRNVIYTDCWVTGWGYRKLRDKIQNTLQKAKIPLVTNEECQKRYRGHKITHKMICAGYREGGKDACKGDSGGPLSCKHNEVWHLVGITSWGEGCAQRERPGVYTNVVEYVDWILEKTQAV
# human factor XIa [2] = target: T1, human factor XIa; test: Michaelis-Menten kinetics of S-2366 hydrolysis in the presence of inhibitors; assay type: biochemical; conditions: for VMAX: S-2366 0-1.6 mM; for mechanism of inhibition: VMAX reduced dose-dependently without significant change in KM
# factor XIa = test: Competitive inhibition studies using unfractionated heparin as a competitor; assay type: biochemical, human; conditions: UFH 0 to 16 μM; 50 mM Tris-HCl pH 7.4, 37 °C
# human factor XIa [3] = target: T1, human factor XIa; assay type: biochemical; conditions: 50 mM Tris-HCl pH 7.4, 37 °C; for reduction in residual fXIa activity (inhibition) in the screen: 300 μM inhibitor; for enhancement of fXIa catalysis in the screen: 300 μM compound
# [4] = test system: fluorescein-EGR factor XIa (fEGR-fXIa); assay type: binding, human; conditions: bolus giving ∼33 μM in fXIa solution quenched with 0.175 M NaI
Structure (SMILES),HS (Hill slope) (human factor XIa [1]),Y0 (minimum value of the residual activity) (human factor XIa [1]),also measured
COC(=O)c1c(C)oc2cc(OC)c(OCc3oc4cc(OC)c(OS(=O)(=O)[O-])cc4c3C(=O)OC)cc12.[Na+] [compound 15],6.9 ± 1.2,4 ± 4,
CCOC(=O)c1c(C)oc2cc(OC)c(OCc3oc4cc(OCC)c(OS(=O)(=O)[O-])cc4c3C(=O)OCC)cc12.[Na+] [compound 21],1.9 ± 0.3,0 ± 2,"VMAX (human factor XIa [2]; 21 at 5 μM, fXIa 0.365 nM): 37.4 ± 1.4 mAU/min; VMAX (human factor XIa [2]; 21 at 7.25 μM, fXIa 0.365 nM): 30.7 ± 0.6 mAU/min; VMAX (human factor XIa [2]; 21 at 10 μM, fXIa 0.365 nM): 20.3 ± 1.2 mAU/min; mechanism of inhibition (human factor XIa [2]): noncompetitive inhibition; change in IC50 in the presence of UFH (factor XIa): no significant change; improvement in potency over the best sulfated QAO designed earlier (human factor XIa [1]): 10 fold"
CCOC(=O)c1c(C)oc2cc(OCc3oc4cc(OC)c(OS(=O)(=O)[O-])cc4c3C(=O)OCC)c(OC)cc12.[Na+] [compound 22],,,reduction in residual fXIa activity (inhibition) in the screen (human factor XIa [3]): did not inhibit fXIa
CCOC(=O)c1c(C)oc2cc(OC)c(OCc3oc4cc(OC)c(OCc5oc6cc(OC)c(OS(=O)(=O)[O-])cc6c5C(=O)OC)cc4c3C(=O)OCC)cc12.[Na+] [compound 23],5.2 ± 0.4,7 ± 1,
CCOC(=O)c1c(C)oc2cc(OC)c(OCc3oc4cc(OC)c(OCc5oc6cc(OCC)c(OS(=O)(=O)[O-])cc6c5C(=O)OCC)cc4c3C(=O)OCC)cc12.[Na+] [compound 24],3.8 ± 0.3,0 ± 1,"VMAX (human factor XIa [2]; 24 at 150 nM, fXIa 0.765 nM): 57.1 ± 1.8 mAU/min; VMAX (human factor XIa [2]; 24 at 300 nM, fXIa 0.765 nM): 48.7 ± 1.7 mAU/min; VMAX (human factor XIa [2]; 24 at 550 nM, fXIa 0.765 nM): 34.9 ± 0.9 mAU/min; VMAX (human factor XIa [2]; 24 at 900 nM, fXIa 0.765 nM): 9.8 ± 0.5 mAU/min; mechanism of inhibition (human factor XIa [2]): noncompetitive inhibition; nature of the interaction with fXIa (recovery of fluorescence after bolus) [4]: fully reversible; change in IC50 in the presence of UFH (factor XIa): no significant change; improvement in potency over the best sulfated QAO designed earlier (human factor XIa [1]): ~50 fold"
CCOC(=O)c1c(C)oc2cc(OC)c(OCc3oc4cc(OC)c(OCc5oc6cc(OC(C)C)c(OS(=O)(=O)[O-])cc6c5C(=O)OCC)cc4c3C(=O)OCC)cc12.[Na+] [compound 25],6.6 ± 0.8,3 ± 2,
CCOC(=O)c1c(C)oc2cc(OC)c(OCc3oc4cc(OC)c(OCc5oc6cc(OC)c(OS(=O)(=O)[O-])cc6c5C(=O)OCC)cc4c3C(=O)OCC)cc12.[Na+] [compound 27],11.7 ± 1.5,2 ± 1,
C=CCOC(=O)c1c(C)oc2cc(OC)c(OCc3oc4cc(OC)c(OCc5oc6cc(OC)c(OS(=O)(=O)[O-])cc6c5C(=O)OCC)cc4c3C(=O)OCC)cc12.[Na+] [compound 28],6.4 ± 0.9,10 ± 2,
CCOC(=O)c1c(COc2cc3c(C(=O)OCC)c(COc4cc5c(C(=O)O)c(C)oc5cc4OC)oc3cc2OC)oc2cc(OC)c(O)cc12 [compound 29],1.9 ± 0.4,0 ± 1,loss in activity from sulfated analogue 30 (human factor XIa [1]; IC50 ratio 29 vs 30): ~13 fold
CCOC(=O)c1c(COc2cc3c(C(=O)O)c(C)oc3cc2OC)oc2cc(OC)c(OCc3oc4cc(OC)c(OS(=O)(=O)[O-])cc4c3C(=O)OCC)cc12.[Na+] [compound 30],6.9 ± 0.7,3 ± 2,less potent than 3-carboxyethyl ester analogue 27 (human factor XIa [1]; IC50 ratio 30 vs 27): 4.7 fold
CCOC(=O)c1c(C)oc2cc(OC)c(OCc3oc4cc(OC)c(OCc5oc6cc(OS(=O)(=O)[O-])c(OC)cc6c5C(=O)OCC)cc4c3C(=O)OCC)cc12.[Na+] [compound 31],,,reduction in residual fXIa activity (inhibition) in the screen (human factor XIa [3]): did not inhibit fXIa
CCOC(=O)c1c(C)oc2cc(OC)c(OCc3oc4cc(OC)c(OCc5oc6cc(OC)c(OCc7oc8cc(OC)c(OS(=O)(=O)[O-])cc8c7C(=O)OCC)cc6c5C(=O)OCC)cc4c3C(=O)OCC)cc12.[Na+] [compound 32],1.3 ± 0.2,0 ± 1,
O=C(c1cc(OS(=O)(=O)[O-])cc(OS(=O)(=O)[O-])c1)N1CCc2cc(OS(=O)(=O)[O-])c(OS(=O)(=O)[O-])cc2C1.[Na+].[Na+].[Na+].[Na+] [compound 33],,,enhancement of fXIa catalysis in the screen (human factor XIa [3]): 20–30%
CCOC(=O)C1Cc2cc(OS(=O)(=O)[O-])c(OS(=O)(=O)[O-])cc2CN1C(=O)c1ccc(OS(=O)(=O)[O-])c(OS(=O)(=O)[O-])c1.[Na+].[Na+].[Na+].[Na+] (stereo not shown) [compound 35],,,enhancement of fXIa catalysis in the screen (human factor XIa [3]): 20–30%
O=C(c1cc(OS(=O)(=O)[O-])c(OS(=O)(=O)[O-])c(OS(=O)(=O)[O-])c1)N1CCc2cc(OS(=O)(=O)[O-])c(OS(=O)(=O)[O-])cc2C1.[Na+].[Na+].[Na+].[Na+].[Na+] [compound 36],,,enhancement of fXIa catalysis in the screen (human factor XIa [3]): 20–30%
O=C([O-])C1Cc2cc(OS(=O)(=O)[O-])c(OS(=O)(=O)[O-])cc2CN1C(=O)c1cc(OS(=O)(=O)[O-])c(OS(=O)(=O)[O-])c(OS(=O)(=O)[O-])c1.[Na+].[Na+].[Na+].[Na+].[Na+].[Na+] (stereo not shown) [compound 37],,,enhancement of fXIa catalysis in the screen (human factor XIa [3]): 20–30%
N#Cc1c(SCC(=O)c2cccc(OS(=O)(=O)[O-])c2OS(=O)(=O)[O-])nc([N+](=O)[O-])c(C#N)c1-c1ccc(Oc2ccccc2)cc1.[Na+].[Na+] [compound 61],6.2 ± 0.5,0 ± 1,
O=C(Nc1ccc(OS(=O)(=O)[O-])cc1)c1cccc(N2C(=O)c3ccc(C(=O)Nc4ccc(OS(=O)(=O)[O-])cc4)cc3C2=O)c1.[Na+].[Na+] [compound 63],6.0 ± 0.9,0 ± 1,
